Results from patent US10189809B2, “SGC stimulators” (Ironwood Pharmaceuticals, Inc., priority 2010, dated 2019).
Where two headings read alike, the source gives them in different places.

Assays:
[1] = molecular target: T1, soluble guanylate cyclase (sGC) (Homo sapiens (Human), UniProt Q02108+Q02153); assay: sGC-HEK-cGMP assay run in the absence of SNP (HEK WC assay); assay type: cell-based; settings: compound at 30 μM, absence of SNP
Method: Human embryonic kidney cells (HEK293), endogenously expressing soluble guanylate cyclase (sGC), were used to evaluate the activity of test compounds. Compounds stimulating the sGC receptor should cause an increase in the intracellular concentration of cGMP. HEK 293 cells were seeded in Dulbecco's Modification of Eagle's Medium supplemented with fetal bovine serum (10% final) and L-glutamine (2 mM final) in a 200 μL volume at a density of 1×10^5 cells/well in a poly-D-lysine coated 96 well flat bottom plate and grown overnight at 37° C. Medium was aspirated and cells were washed with 1× Hank's Buffered Saline Salt Solution (200 μL). Cells were then incubated for 15 minutes at 37° C. with 0.5 mM 3-isobutyl-1-methylxanthine (200 μL). Test article was then added to the assay mixture (2 μL) and incubated at 37° C. for 10 minutes. After the 10 minute incubation, the assay mixture was aspirated and 0.1M HCl (200 μL) was added to the cells. The plate was incubated at 4° C. for 30 minutes in the 0.1M HCl to stop the reaction and lysed the cells. The plates were then centrifuged at 1,200 g for 5 minutes at room temperature. Supernatants were collected and transferred to a new flat bottom 96 well plate for analysis. Vehicle controls were carried out using DMSO (1%). A known sGC stimulator, BAY 41-2272, was used as the positive control. Samples were diluted with an equal volume of 1 M Ammonium Acetate (pH 7) to neutralize samples for better chromatography. A 2× cGMP standard curve was prepared in 0.1 M HCl and then diluted with an equal volume of 1 M Ammonium Acetate, with the following final concentrations in nM: 1024, 512, 256, 128, 64, 32, 16, 8, 4, 2, 1. cGMP concentrations were determined from each sample using the LC/MS conditions (Table 2 below) and calculated standard curve. EC50 values were calculated from concentration-response curves generated with GraphPad Prism Software.

[2] = molecular target: T1, soluble guanylate cyclase (sGC); assay: sGC-HEK-cGMP assay run with SNP incubation (HEK WC assay); assay type: cell-based; settings: for HEK WC Assay (fold increase at 30 μM in the presence of 10 μM SNP): compound at 30 μM; for EC50: in the presence of 10 uM SNP
How it was run: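 EC50 values derive from concentration-response curves of intracellular cGMP in HEK293 cells, which express sGC endogenously. Compound and sodium nitroprusside were co-incubated 10 min at 37 °C after a 15-min 0.5 mM IBMX step, with 0.1 M HCl lysis and 1% DMSO vehicle.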

[3] = read-out: HEK WC Assay (% Emax at 1 μM with 10 uM SNP)
[4] = read-out: HEK WC Assay (% Emax at 10 μM with 10 uM SNP)
[5] = read-out: HEK WC Assay (% Emax at 30 μM with 10 uM SNP)

T1 sequence (Q02153 whole entry): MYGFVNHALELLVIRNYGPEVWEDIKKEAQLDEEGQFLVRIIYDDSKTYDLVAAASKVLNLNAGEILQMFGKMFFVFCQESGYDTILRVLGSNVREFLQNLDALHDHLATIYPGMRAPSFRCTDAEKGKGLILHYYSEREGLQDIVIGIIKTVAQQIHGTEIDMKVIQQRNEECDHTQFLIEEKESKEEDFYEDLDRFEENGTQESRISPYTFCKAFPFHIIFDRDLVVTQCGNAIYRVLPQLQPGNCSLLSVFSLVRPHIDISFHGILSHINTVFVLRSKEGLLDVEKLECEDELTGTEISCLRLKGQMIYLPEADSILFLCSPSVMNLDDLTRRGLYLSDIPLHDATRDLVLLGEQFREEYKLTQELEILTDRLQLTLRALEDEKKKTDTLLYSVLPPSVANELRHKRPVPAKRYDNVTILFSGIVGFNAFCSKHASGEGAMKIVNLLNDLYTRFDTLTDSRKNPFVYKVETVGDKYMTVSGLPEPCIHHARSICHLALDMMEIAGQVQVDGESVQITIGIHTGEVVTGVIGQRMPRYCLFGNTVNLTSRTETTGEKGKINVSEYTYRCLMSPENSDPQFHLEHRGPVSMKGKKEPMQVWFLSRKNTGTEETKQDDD
T1 sequence (Q02108 whole entry): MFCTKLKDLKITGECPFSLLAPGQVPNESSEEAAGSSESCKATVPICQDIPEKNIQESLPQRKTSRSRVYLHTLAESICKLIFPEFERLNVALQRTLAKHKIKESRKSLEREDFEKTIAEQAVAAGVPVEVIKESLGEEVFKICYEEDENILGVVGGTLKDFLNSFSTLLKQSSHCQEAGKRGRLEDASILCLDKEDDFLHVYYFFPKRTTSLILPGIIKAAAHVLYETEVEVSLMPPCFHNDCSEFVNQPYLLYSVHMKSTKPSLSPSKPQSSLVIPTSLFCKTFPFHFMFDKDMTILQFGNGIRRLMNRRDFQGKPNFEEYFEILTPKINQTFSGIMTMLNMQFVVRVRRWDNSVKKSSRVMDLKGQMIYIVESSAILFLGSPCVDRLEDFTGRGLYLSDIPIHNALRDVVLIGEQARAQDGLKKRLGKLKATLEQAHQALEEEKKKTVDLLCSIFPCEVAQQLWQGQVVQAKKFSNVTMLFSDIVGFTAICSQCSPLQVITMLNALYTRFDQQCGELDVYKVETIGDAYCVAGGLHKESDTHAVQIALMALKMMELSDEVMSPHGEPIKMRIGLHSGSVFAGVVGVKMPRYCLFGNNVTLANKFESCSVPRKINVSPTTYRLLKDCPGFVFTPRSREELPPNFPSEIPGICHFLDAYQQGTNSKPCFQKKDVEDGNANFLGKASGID

Compound | HEK WC Assay (fold increase at 30 μM in the absence of SNP) [1] | HEK WC Assay (fold increase at 30 μM in the presence of 10 μM SNP) [2] | EC50 [2] [µM] | Emax [2, 3] [%] | Emax [2, 4] [%] | Emax [2, 5] [%]
Oc1nc(-c2cc(-c3ccon3)n(Cc3ccccc3F)n2)ncc1Br [Compound I-192] | D (D = 5 to <10 fold increase) | E (E = 10 to <20 fold increase) | < 20 | 20 to 40 | 40 to 60 | 40 to 60
O=C(Nc1cnc(-c2cc(-c3ncco3)n(Cc3ccccc3F)n2)nc1O)c1ccccc1 [Compound I-159] | B (B = 1 to <2 fold increase) | D (D = 5 to <10 fold increase) |  |  | 20 to 40 | 20 to 40
Nc1nc(-c2cc(-c3ccon3)n(Cc3ccccc3F)n2)ncc1NCc1ccccc1 [Compound I-223] | C (C = 2 to <5 fold increase) | E (E = 10 to <20 fold increase) | 100 to 300 | 0 to 10 | 10 to 20 | 10 to 20
Nc1nc(-c2cc(-c3ccon3)n(Cc3ccccc3F)n2)ncc1NC(=O)c1cccc(C(F)(F)F)c1 [Compound I-215] | E (E = 10 to <20 fold increase) | F (F = 20 to <30 fold increase) | < 20 | 80 to 100 | 80 to 100 | 80 to 100
Nc1nc(-c2cc(-c3ccon3)n(Cc3ccccc3F)n2)ncc1NC(=O)C1(C(F)(F)F)CCC1 [Compound I-243] | D (D = 5 to <10 fold increase) | E (E = 10 to <20 fold increase) | < 20 | 40 to 60 | 40 to 60 | 60 to 80
Nc1nc(-c2cc(-c3ccon3)n(Cc3ccccc3F)n2)ncc1NC(=O)[C@@H]1CCCN1 [Compound I-225] | C (C = 2 to <5 fold increase) | E (E = 10 to <20 fold increase) | 60 to 100 | 0 to 10 | 20 to 40 | 20 to 40
CC1(C(=O)Nc2cnc(-c3cc(-c4ccon4)n(Cc4ccccc4F)n3)nc2N)CCCO1 (stereo not shown) [Compound I-232] | C (C = 2 to <5 fold increase) | E (E = 10 to <20 fold increase) | < 20 | 20 to 40 | 60 to 80 | 60 to 80
CC(C)(C)OC(=O)Nc1cnc(-c2cc(-c3ccon3)n(Cc3ccccc3F)n2)nc1O [Compound I-164] | C (C = 2 to <5 fold increase) | E (E = 10 to <20 fold increase) |  |  | 20 to 40 | 20 to 40
Fc1ccccc1Cn1nc(-c2ccccn2)cc1-c1cccc(Br)n1 [Compound I-313, 2-Bromo-6-(1-(2-fluorobenzyl)-3-(pyridin-2-yl)-1H-pyrazol-5-yl)pyridine] | C (C = 2 to <5 fold increase) | C (C = 2 to <5 fold increase) |  |  | 0 to 10 | 0 to 10
Fc1ccccc1Cn1nc(-c2ccccn2)cc1-n1cncn1 [Compound I-289] | B (B = 1 to <2 fold increase) | B (B = 1 to <2 fold increase) |  |  | 0 to 10 | 0 to 10
Nc1nc(-c2cc(-c3ccon3)n(Cc3ccccc3F)n2)ncc1NC(=O)/C=C/c1ccccc1 [Compound I-239] | D (D = 5 to <10 fold increase) | E (E = 10 to <20 fold increase) | < 20 | 40 to 60 | 60 to 80 | 60 to 80
c1cnc(-c2cc(-c3ccon3)n(Cc3cncnc3)n2)nc1 [Compound I-208] | B (B = 1 to <2 fold increase) | D (D = 5 to <10 fold increase) | 100 to 300 | 0 to 10 | 10 to 20 | 10 to 20
